Laboratory results reported in patent publication US20090215742A1, “AMIDE […]” (PFIZER, INC., priority 2005, published 2009).

Target: T1, HSP-90 (Homo sapiens, UniProt P07900)
T1 construct: fused on or other part: 6-His tag at the C-terminus
Assay: HSP-90 SPA (scintillation proximity assay) competition binding assay, displacement of tritiated propyl-Geldanamycin
Conditions: for inhibition at 1 µM: read-out: % inhibition @ 1 μM; for inhibition at 10 µM: read-out: % inhibition @ 10 μM
Description: Compounds of the present invention were evaluated for potency against HSP-90 using a SPA (scintillation proximity assay) competition binding assay. Briefly, either full length or N-terminal HSP-90 that contains a 6-His tag on its C-terminus binds to copper on Yttrium-silicate scintillant beads via the His-tag. Tritiated propyl-Geldanamycin (pGA), whose structure is shown below, is an analog of a natural inhibitor of HSP-90 called Geldanamycin.
Tritiated pGA, which contains a tritiated propyl-amine group added at the #17 position, binds HSP-90 and brings the isotope into proximity with the beads. […] The beta signal emitted from the isotope excites the scintillant, which creates a measurable signal. As competitive compounds are added to the assay mixture, they compete with bound tritiated pGA at the ATP-binding site on the N-terminal of HSP-90. When a compound displaces the labeled pGA, the signal is reduced (the beta-particles are no longer in proximity with the bead). This reduction in signal is used to quantify the extent to which the inhibitor/compound is competitive with pGA.
Typical reaction solutions contained 30 nM HSP-90 and 200 nM ^3H-pGA in binding buffer (100 mM Hepes, pH 7.5 and 150 mM KCl). […] Inhibitors were added to the HSP-90/^3H-pGA solutions at eleven different concentrations for Ki determinations. […] To determine percent inhibition, the compound was tested at 1 and 10 μM. The final DMSO in the samples was 4%. Copper-Ysi beads (Amersham, #RPNQ0096) that have been diluted in binding buffer were added to each well to give a final concentration of 100 μg/well. The plates were sealed, covered with a foil-covered lid and shaken for 30 minutes at room temperature. The beads were allowed to settle for 30 minutes after which the plates were counted using a Packard TopCount NXT instrument. This procedure has also been adapted for medium throughput using a Beckman Biomek FX. Samples were run in duplicate and on two separate days to assure an accurate value of Ki.
For Ki determinations, the corrected cpm's (actual cpm's minus background) were plotted vs. inhibitor concentration using GraphPad Prism software. […] The IC50 was then used to calculate the Ki by using the Cheng-Prusoff equation: […]
This is normally true when the observed IC50 is […] the HSP-90 concentration. For a tight binding inhibitor, the following equation can be applied: […]
EL and ELo are the radioligand-HSP-90 complexes in the presence and absence of inhibitor, respectively. EL/ELo represents the fractional signal in the presence of inhibitor. Io, Eo, and Lo are the inhibitor, HSP-90, and radioligand concentrations, respectively.

Structure (SMILES)	inhibition at 1 µM	inhibition at 10 µM
O=C(c1ccc(O)cc1O)N1CCC(O)(c2ccc(Cl)c(C(F)(F)F)c2)CC1 [Example 78, 4-({4-[4-chloro-3-(trifluoromethyl)phenyl]-4-hydroxypiperidin-1-yl}carbonyl)benzene-1,3-diol]	17.7%	68.1%
O=C(c1ccc(O)cc1O)N1CCC2(C=Cc3cc(Cl)ccc3O2)CC1 [Example 79, 4-[(6-chloro-1′H-spiro[chromene-2,4′-piperidin]-1′-yl)carbonyl]benzene-1,3-diol]	57.7%	85.1%
O=C(c1ccc(O)cc1O)N1CCC2(CC1)OCc1ccccc12 [Example 80, 4-(1′H,3H-spiro[2-benzofuran-1,4′-piperidin]-1′-ylcarbonyl)benzene-1,3-diol]	42%	81.3%
C[C@H](c1cccc2ccccc12)N(C)C(=O)c1ccc(O)cc1O [Example 81, 2,4-dihydroxy-N-methyl-N-[1-(1-naphthyl)ethyl]benzamide]	29%	73.8%
Cc1ccc2c(c1)C=CC1(CCN(C(=O)c3ccc(O)cc3O)CC1)O2 [Example 82, 4-[(6-methyl-1′H-spiro[chromene-2,4′-piperidin]-1′-yl)carbonyl]benzene-1,3-diol]	62.8%	85.3%
O=C(c1ccc(O)cc1O)N1CCC(c2ccnc(C(F)(F)F)n2)CC1 [Example 83, 4-({4-[2-(trifluoromethyl)pyrimidin-4-yl]piperidin-1-yl}carbonyl)benzene-1,3-diol]	10.1%	35%
O=C(c1ccc(O)cc1O)N1CCCC1c1ccc(Cl)cc1 (stereo not drawn) [Example 84, 4-{[2-(4-chlorophenyl)pyrrolidin-1-yl]carbonyl}benzene-1,3-diol]	76.2%	89.8%
O=C1CC2(CCN(C(=O)c3ccc(O)cc3O)CC2)Oc2ccccc21 [Example 85]	52.1%	79.6%
O=C(c1ccc(O)cc1O)N1CCC(c2ncccn2)CC1 [Example 86, 4-[(4-pyrimidin-2-ylpiperidin-1-yl)carbonyl]benzene-1,3-diol]	23.9%	59.9%
O=C(c1ccc(O)cc1O)N1CCC(COc2cccc(Cl)c2)C1 (stereo not drawn) [Example 87, 4-({3-[(3-chlorophenoxy)methyl]pyrrolidin-1-yl}carbonyl)benzene-1,3-diol]	36.7%	65%
O=C(c1ccc(O)cc1O)N1CCCN(c2nc3cc(Cl)ccc3o2)CC1 [Example 88, 4-{[4-(5-chloro-1,3-benzoxazol-2-yl)-1,4-diazepan-1-yl]carbonyl}benzene-1,3-diol]	4.3%	42.9%
O=C(c1ccc(O)cc1O)N1CCC(COc2ccc(F)cc2Cl)C1 (stereo not drawn) [Example 89, 4-({3-[(2-chloro-4-fluorophenoxy)methyl]pyrrolidin-1-yl}carbonyl)benzene-1,3-diol]	45.7%	77.8%
O=C(c1ccc(O)cc1O)N1CCCC1 [Example 90, 4-(pyrrolidin-1-ylcarbonyl)benzene-1,3-diol]	23.2%	65.4%
O=C1CCCN1Cc1nnc2n1CCN(C(=O)c1ccc(O)cc1O)CC2 [Example 91, 1-{[7-(2,4-dihydroxybenzoyl)-6,7,8,9-tetrahydro-5H-[1,2,4]triazolo[4,3-d][1,4]diazepin-3-yl]methyl}pyrrolidin-2-one]	-7.3%	12.2%
COc1ccccc1-c1nnc([C@H]2CCCN2C(=O)c2ccc(O)cc2O)o1 [Example 92, 4-({2-[5-(2-methoxyphenyl)-1,3,4-oxadiazol-2-yl]pyrrolidin-1-yl}carbonyl)benzene-1,3-diol]	9%	22.4%
O=C(c1ccc(O)cc1O)N1CCC(c2ccccc2)C1 (stereo not drawn) [Example 93, 4-[(3-phenylpyrrolidin-1-yl)carbonyl]benzene-1,3-diol]	34.5%	76.1%
COC(=O)C1CCN(C(=O)c2ccc(O)cc2O)C1 (stereo not drawn) [Example 94, methyl 1-(2,4-dihydroxybenzoyl)pyrrolidine-3-carboxylate]	21.1%	62.1%
O=C(c1ccc(O)cc1O)N1CCC(c2ccc(F)cc2)C1 (stereo not drawn) [Example 95, 4-{[3-(4-fluorophenyl)pyrrolidin-1-yl]carbonyl}benzene-1,3-diol]	22.7%	70.3%
O=C(c1ccc(O)cc1O)N1CCC(c2cccc(Cl)c2)C1 (stereo not drawn) [Example 96, 4-{[3-(3-chlorophenyl)pyrrolidin-1-yl]carbonyl}benzene-1,3-diol]	20.8%	67.6%
O=C(c1ccc(O)cc1O)N1CC=CCC1 [Example 97, 4-(3,6-dihydropyridin-1(2H)-ylcarbonyl)benzene-1,3-diol]	62.7%	82.6%
Cc1noc(C)c1COCC1COCCN(C(=O)c2ccc(O)cc2O)C1 (stereo not drawn) [Example 98, 4-[(6-{[(3,5-dimethylisoxazol-4-yl)methoxy]methyl}-1,4-oxazepan-4-yl)carbonyl]benzene-1,3-diol]	26.7%	65.9%
O=C(c1ccc(O)cc1O)N1CCOCC(Cc2ccc(Cl)c(Cl)c2)C1 (stereo not drawn) [Example 99, 4-{[6-(3,4-dichlorobenzyl)-1,4-oxazepan-4-yl]carbonyl}benzene-1,3-diol]	52.2%	80%
Cc1ccccc1C1(O)CCN(C(=O)c2ccc(O)cc2O)C1 (stereo not drawn) [Example 100, 4-{[3-hydroxy-3-(2-methylphenyl)pyrrolidin-1-yl]carbonyl}benzene-1,3-diol]	35.9%	79.1%
Cc1cccc(N2CCN(C(=O)c3ccc(O)cc3O)CC2)n1 [Example 101, 4-{[4-(6-methylpyridin-2-yl)piperazin-1-yl]carbonyl}benzene-1,3-diol]	21.8%	70.2%
COc1ccc(CCN(C)C(=O)c2ccc(O)cc2O)cc1OC [Example 102, N-[2-(3,4-dimethoxyphenyl)ethyl]-2,4-dihydroxy-N-methylbenzamide]	9.8%	54.4%
O=C(c1ccc(O)cc1O)N1CCc2ccccc2C1c1ccccc1 (stereo not drawn) [Example 103, (2,4-Dihydroxy-phenyl)-(1-phenyl-3,4-dihydro-1H-isoquinolin-2-yl)-methanone]	64.5%	87.8%
Cc1nc2c(s1)CN(C(=O)c1ccc(O)cc1O)CC2 [Example 104, 4-[(2-methyl-6,7-dihydro[1,3]thiazolo[5,4-c]pyridin-5(4H)-yl)carbonyl]benzene-1,3-diol]	33.9%	74.3%
CN(Cc1ccc(F)cc1)C(=O)c1ccc(O)cc1O [Example 105, N-(4-fluorobenzyl)-2,4-dihydroxy-N-methylbenzamide]	30.2%	69.3%
CN(Cc1ccc(Cl)cc1)C(=O)c1ccc(O)cc1O [Example 106, N-(4-chlorobenzyl)-2,4-dihydroxy-N-methylbenzamide]	26.9%	72.4%
CN(Cc1ccc(Oc2ccccc2)cc1)C(=O)c1ccc(O)cc1O [Example 107, 2,4-dihydroxy-N-methyl-N-(4-phenoxybenzyl)benzamide]	51.1%	83.4%
